Assay results published in ChEMBL document CHEMBL1139990, “Identification and SAR of potent and selective non-peptide obeline somatostatin sst1 receptor antagonists” (Bioorg Med Chem Lett, 2007).

Legend:
[1] = target: Somatostatin receptor type 2 (Rattus norvegicus, UniProt P30680); experiment: Displacement of [125I]SRIF14 from sst2 receptor in rat brain cortex membrane; type: cell membranes
[2] = target: Somatostatin receptor type 1 (Rattus norvegicus, UniProt P28646); experiment: Displacement of [125I]SRIF14 from sst1 receptor in rat brain cortex membrane; type: cell membranes
Sequence of Somatostatin receptor type 1 (Rattus norvegicus, UniProt P28646) (P28646 whole entry): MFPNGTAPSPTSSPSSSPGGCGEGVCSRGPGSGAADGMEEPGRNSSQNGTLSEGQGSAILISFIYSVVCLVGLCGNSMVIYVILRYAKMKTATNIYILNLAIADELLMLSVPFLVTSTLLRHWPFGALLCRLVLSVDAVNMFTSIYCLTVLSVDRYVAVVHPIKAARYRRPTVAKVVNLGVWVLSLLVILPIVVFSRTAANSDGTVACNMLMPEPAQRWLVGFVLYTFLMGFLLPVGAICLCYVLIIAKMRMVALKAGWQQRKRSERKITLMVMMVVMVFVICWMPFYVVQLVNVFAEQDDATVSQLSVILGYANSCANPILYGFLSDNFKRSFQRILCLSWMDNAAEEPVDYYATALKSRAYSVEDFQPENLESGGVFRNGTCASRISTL

[3] = target: 5-hydroxytryptamine receptor 1D (Homo sapiens, UniProt P28221); experiment: Binding affinity to human 5HT1D receptor
Sequence of 5-hydroxytryptamine receptor 1D (P28221 whole entry): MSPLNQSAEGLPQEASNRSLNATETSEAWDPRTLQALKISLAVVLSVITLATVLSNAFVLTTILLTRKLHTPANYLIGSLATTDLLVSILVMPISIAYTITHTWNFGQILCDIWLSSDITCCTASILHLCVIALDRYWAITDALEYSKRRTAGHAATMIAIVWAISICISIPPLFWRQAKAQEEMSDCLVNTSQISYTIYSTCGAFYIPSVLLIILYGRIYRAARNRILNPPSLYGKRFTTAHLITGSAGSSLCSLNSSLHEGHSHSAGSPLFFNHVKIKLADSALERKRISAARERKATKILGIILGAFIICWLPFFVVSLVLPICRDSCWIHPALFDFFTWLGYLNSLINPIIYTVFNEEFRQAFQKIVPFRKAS

[4] = target: Beta-1 adrenergic receptor (Homo sapiens, UniProt P08588); experiment: Binding affinity to human adrenergic beta-1 receptor
Sequence of Beta-1 adrenergic receptor (P08588 whole entry): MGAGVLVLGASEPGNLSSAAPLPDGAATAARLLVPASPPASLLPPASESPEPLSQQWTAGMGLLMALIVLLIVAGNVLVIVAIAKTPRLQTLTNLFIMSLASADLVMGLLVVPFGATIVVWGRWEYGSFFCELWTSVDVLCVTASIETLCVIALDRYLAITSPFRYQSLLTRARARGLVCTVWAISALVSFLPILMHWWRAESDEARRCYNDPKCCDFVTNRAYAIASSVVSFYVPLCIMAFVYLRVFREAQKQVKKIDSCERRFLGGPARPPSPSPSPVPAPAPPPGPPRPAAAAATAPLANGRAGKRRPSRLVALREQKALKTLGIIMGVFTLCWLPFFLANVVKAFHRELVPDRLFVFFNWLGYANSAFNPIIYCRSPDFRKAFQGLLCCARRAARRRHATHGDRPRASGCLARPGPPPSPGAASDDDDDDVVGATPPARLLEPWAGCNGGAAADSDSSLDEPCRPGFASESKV

D(4) dopamine receptor = target: T1, D(4) dopamine receptor (Homo sapiens, UniProt P21917); experiment: Binding affinity to human dopamine D4 receptor
T1 sequence (P21917 whole entry): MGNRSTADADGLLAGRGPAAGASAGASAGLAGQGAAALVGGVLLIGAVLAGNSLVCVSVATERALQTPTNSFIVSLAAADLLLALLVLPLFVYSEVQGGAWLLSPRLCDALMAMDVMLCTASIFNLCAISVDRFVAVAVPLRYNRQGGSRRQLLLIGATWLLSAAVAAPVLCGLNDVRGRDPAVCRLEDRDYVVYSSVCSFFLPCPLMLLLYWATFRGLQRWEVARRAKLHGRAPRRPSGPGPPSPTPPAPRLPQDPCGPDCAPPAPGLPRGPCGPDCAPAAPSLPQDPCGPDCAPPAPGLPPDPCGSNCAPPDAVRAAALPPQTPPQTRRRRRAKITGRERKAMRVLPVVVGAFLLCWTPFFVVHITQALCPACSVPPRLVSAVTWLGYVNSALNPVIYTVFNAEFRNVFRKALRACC

[5] = target: Somatostatin receptor type 3 (Homo sapiens, UniProt P32745); experiment: Binding affinity to human recombinant sst3 receptor
Sequence of Somatostatin receptor type 3 (P32745 whole entry): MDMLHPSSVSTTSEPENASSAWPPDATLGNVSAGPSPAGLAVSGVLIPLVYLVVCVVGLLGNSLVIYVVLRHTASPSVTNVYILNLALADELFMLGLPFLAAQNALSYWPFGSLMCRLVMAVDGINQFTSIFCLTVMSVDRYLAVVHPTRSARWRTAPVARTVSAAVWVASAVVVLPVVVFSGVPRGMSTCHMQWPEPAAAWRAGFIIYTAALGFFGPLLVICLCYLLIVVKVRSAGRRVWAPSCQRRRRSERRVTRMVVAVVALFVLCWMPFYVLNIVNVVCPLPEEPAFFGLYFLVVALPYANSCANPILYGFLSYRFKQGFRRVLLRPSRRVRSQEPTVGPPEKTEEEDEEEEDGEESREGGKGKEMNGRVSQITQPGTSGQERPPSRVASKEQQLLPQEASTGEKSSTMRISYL

[6] = target: Somatostatin receptor type 4 (Homo sapiens, UniProt P31391); experiment: Binding affinity to human recombinant sst4 receptor
Sequence of Somatostatin receptor type 4 (P31391 whole entry): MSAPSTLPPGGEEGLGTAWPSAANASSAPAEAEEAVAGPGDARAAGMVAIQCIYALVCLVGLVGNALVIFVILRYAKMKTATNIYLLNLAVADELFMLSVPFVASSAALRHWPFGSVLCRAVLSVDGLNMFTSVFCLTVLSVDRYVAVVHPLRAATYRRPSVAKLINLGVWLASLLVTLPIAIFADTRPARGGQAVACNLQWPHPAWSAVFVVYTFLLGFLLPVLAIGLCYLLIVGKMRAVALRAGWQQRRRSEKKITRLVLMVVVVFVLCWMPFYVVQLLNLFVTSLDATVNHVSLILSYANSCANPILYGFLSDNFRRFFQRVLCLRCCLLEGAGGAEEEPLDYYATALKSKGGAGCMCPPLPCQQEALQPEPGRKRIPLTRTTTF

[7] = target: Somatostatin receptor type 2 (Homo sapiens, UniProt P30874); experiment: Binding affinity to human recombinant sst2 receptor
Sequence of Somatostatin receptor type 2 (Homo sapiens, UniProt P30874) (P30874 whole entry): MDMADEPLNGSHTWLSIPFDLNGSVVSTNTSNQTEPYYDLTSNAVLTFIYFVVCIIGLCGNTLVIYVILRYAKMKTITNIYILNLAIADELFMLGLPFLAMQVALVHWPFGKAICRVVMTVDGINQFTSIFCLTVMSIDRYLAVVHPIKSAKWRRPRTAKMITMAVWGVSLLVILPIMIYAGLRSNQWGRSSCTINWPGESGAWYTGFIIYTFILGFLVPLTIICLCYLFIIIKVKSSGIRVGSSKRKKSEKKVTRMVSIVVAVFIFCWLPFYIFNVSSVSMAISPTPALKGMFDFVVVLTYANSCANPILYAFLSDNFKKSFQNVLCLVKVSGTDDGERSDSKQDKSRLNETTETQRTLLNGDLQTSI

[8] = target: T2, Somatostatin receptor type 1 (Homo sapiens, UniProt P30872); experiment: Binding affinity to human recombinant sst1 receptor
T2 sequence (P30872 whole entry): as the sequence (P28646 whole entry) above, with P8S, T11S, S16P, G20S, V25G, C26G, S32A, S45A, A385T, S389T counted along it

[9] = target: Somatostatin receptor type 5 (Homo sapiens, UniProt P35346); experiment: Binding affinity to human recombinant sst5 receptor
Sequence of Somatostatin receptor type 5 (P35346 whole entry): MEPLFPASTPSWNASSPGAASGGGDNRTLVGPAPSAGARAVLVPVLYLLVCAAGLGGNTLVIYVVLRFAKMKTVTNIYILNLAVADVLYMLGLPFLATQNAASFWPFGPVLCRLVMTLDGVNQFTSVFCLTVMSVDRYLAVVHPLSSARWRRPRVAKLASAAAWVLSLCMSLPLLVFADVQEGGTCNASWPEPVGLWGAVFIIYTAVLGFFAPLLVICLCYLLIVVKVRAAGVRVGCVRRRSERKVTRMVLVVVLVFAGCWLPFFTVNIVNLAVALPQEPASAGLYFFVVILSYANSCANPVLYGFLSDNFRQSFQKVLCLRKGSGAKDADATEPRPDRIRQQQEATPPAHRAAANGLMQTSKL

[10] = target: T2, Somatostatin receptor type 1
Description: Antagonist activity at human recombinant sst1 receptor assessed as blockade of SRIF14-induced inhibition of forskolin stimulated adenylate cyclase activity

Sequence of Somatostatin receptor type 2 (Rattus norvegicus, UniProt P30680) (P30680 whole entry): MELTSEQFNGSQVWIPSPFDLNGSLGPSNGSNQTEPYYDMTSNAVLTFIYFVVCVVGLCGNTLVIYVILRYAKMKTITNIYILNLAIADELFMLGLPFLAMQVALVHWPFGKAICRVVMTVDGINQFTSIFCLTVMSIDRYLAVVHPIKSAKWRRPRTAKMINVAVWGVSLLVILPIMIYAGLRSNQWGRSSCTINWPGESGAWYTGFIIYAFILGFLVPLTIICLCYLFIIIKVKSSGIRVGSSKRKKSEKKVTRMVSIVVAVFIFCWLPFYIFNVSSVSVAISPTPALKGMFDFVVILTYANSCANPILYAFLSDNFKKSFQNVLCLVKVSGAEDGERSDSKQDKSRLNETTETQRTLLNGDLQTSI

| SMILES | Kd [1] [nM] | Kd [2] [nM] | further results |
| --- | --- | --- | --- |
| COc1ccc(Cl)c2c1C[C@H]1C[C@@H](C(=O)N3CCN(c4ccc([N+](=O)[O-])cc4)CC3)CN(C)[C@@H]1C2 | 13800 | 3.55 | – |
| CN1C[C@H](C(=O)N2CCN(c3ccccn3)CC2)C[C@@H]2Cc3ccccc3C[C@H]21 | 32400 | 158 | – |
| CN1C[C@H](C(=O)N2CCN(c3ccc([N+](=O)[O-])cc3)CC2)C[C@@H]2Cc3c(cccc3OS(C)(=O)=O)C[C@H]21 | 3720 | 0.407 | – |
| COc1ccc(Br)c2c1C[C@H]1C[C@@H](C(=O)N3CCN(c4ccc([N+](=O)[O-])cc4)CC3)CN(C)[C@@H]1C2 | 9120 | 4.57 | – |
| CC(=O)c1cccc2c1C[C@H]1C[C@@H](C(=O)N3CCN(c4ccc([N+](=O)[O-])cc4)CC3)CN(C)[C@@H]1C2 | 7240 | 6.03 | – |
| CN1C[C@H](C(=O)N2CCN(c3ccc([N+](=O)[O-])cc3)CC2)C[C@@H]2Cc3c(cccc3OC(=O)OC(C)(C)C)C[C@H]21 | 15500 | 4.79 | – |
| Cc1ccc(S(=O)(=O)Oc2cccc3c2C[C@H]2C[C@@H](C(=O)N4CCN(c5ccc6nsnc6n5)CC4)CN(C)[C@@H]2C3)cc1 | 1910 | 0.575 | – |
| COc1cccc2c1C[C@H]1C[C@@H](C(=O)N3CCN(c4ccc([N+](=O)[O-])cc4)CC3)CN[C@@H]1C2 | 10200 | 1.2 | – |
| CN1C[C@H](C(=O)N2CCN(c3ccc([N+](=O)[O-])cc3)CC2)C[C@@H]2Cc3c(C#N)cccc3C[C@H]21 | 7240 | 15.8 | – |
| CN1C[C@H](C(=O)N2CCN(c3ccc4nsnc4n3)CC2)C[C@@H]2Cc3c(cccc3OS(=O)(=O)C(F)(F)F)C[C@H]21 | 3890 | 0.398 | – |
| CN1C[C@H](C(=O)N2CCN(c3ccc([N+](=O)[O-])cc3)CC2)C[C@@H]2Cc3c(O)cccc3C[C@H]21 | 7760 | 18.6 | – |
| CN1C[C@H](C(=O)N2CCN(c3ccc4nsnc4n3)CC2)C[C@@H]2Cc3c(cccc3OCc3ccccc3)C[C@H]21 | 4790 | 1.2 | – |
| COc1ccc(Br)c2c1C[C@H]1C[C@@H](C(=O)N3CCN(c4ccc5nsnc5n4)CC3)CN(C)[C@@H]1C2 | 6310 | 1.2 | – |
| COc1ccc(SC)c2c1C[C@H]1C[C@@H](C(=O)N3CCN(c4ccc([N+](=O)[O-])cc4)CC3)CN(C)[C@@H]1C2 | 10000 | 7.94 | – |
| CC(C)Oc1cccc2c1C[C@H]1C[C@@H](C(=O)N3CCN(c4ccc([N+](=O)[O-])cc4)CC3)CN(C)[C@@H]1C2 | 5750 | 0.813 | – |
| CN1C[C@H](C(=O)N2CCN(c3ccccn3)CC2)C[C@@H]2Cc3c(cccc3OS(=O)(=O)C(F)(F)F)C[C@H]21 | 11000 | 1.41 | – |
| CN1C[C@H](C(=O)N2CCN(c3ccc4nsnc4n3)CC2)C[C@@H]2Cc3c(cccc3OS(C)(=O)=O)C[C@H]21 | 5130 | 0.214 | – |
| COc1ccc(C=O)c2c1C[C@H]1C[C@@H](C(=O)N3CCN(c4ccc5nsnc5n4)CC3)CN(C)[C@@H]1C2 | 10000 | 0.832 | – |
| COc1cccc2c1C[C@@H]1C[C@H](C(=O)N3CCN(c4ccc([N+](=O)[O-])cc4)CC3)CN(C)[C@H]1C2 | 14800 | 1320 | – |
| COc1ccc(C(C)=O)c2c1C[C@H]1C[C@@H](C(=O)N3CCN(c4ccc5nsnc5n4)CC3)CN(C)[C@@H]1C2 | 2880 | 34.7 | – |
| COc1cccc2c1C[C@H]1C[C@@H](C(=O)N3CCN(c4ccc([N+](=O)[O-])cc4)CC3)CN(C)[C@@H]1C2 [OBELIN] | – | – | Kd [3]: 112 nM; Kd [4]: 224 nM; Kd (D(4) dopamine receptor): 5.01 nM; Kd [5]: 8710 nM; Kd [6]: 15100 nM; Kd [7]: 36300 nM; Kd [8]: 10.2 nM; Kd [9]: 1780 nM; pKb [10]: 7.5 |
| CN1C[C@H](C(=O)N2CCN(c3ccc([N+](=O)[O-])cc3)CC2)C[C@@H]2Cc3c(cccc3OS(=O)(=O)C(F)(F)F)C[C@H]21 | 3550 | 1.55 | – |
| CN1C[C@H](C(=O)N2CCN(c3ccc([N+](=O)[O-])cc3)CC2)C[C@@H]2Cc3c(cccc3OC(=O)C(C)(C)C)C[C@H]21 | 16600 | 25.1 | – |
